Laboratory results from US11383009B2, “Rapamycin 40-O-cyclic hydrocarbon esters, compositions and methods” (BIOTRONIK AG, priority 2012, dated 2022).
Several values for one entry are separate records, joined by “and”; a condition that tells them apart may be missing. Identical values can stand only once.

How the values were obtained:
[1] = Stent coating condition after stent expansion (ductility); conditions: coating of 1:1 weight ratio drug and polylactic acid; compared with rapamycin coating
Description: In accordance with one of the unexpected advantages of the present invention, it has been discovered that a coating formed with the compounds of the present invention is substantially more ductile, i.e., less prone to cracking, than a coating formed with rapamycin. This property can be seen from the photomicrographs of FIGS. 1 and 2, which show the condition of a stent coating after stent expansion in a stent formed of a 1:1 weight ratio of […] and polylactic acid (FIG. 1) and a coating formed of a 1:1 weight ratio of Compound 1 (Table I) and polylactic acid (FIG. 2). […] An important advantage of the drug compound in this setting is that a coating with a high drug:polymer ratio can be prepared without the need for addition of a separate plasticizer, which may cause toxic responses, affect drug elution rates, and extend development times and increase production costs.

[2] = Drug elution and total recovery from polymer-coated stents; type: physicochemical; conditions: single stent, 1:1 drug/polylactic acid coating; 25% ethanol in water, 37° C., 168 hours elution plus exhaustive acetonitrile extraction
Method: This section examines the stability of the compounds of the invention when released from a reservoir over a several-day to several-week period. In one study, a series of stents were prepared with a suitable coating of drug/polymer mixture. The stents were fabricated from laser cut and electropolished 316L Stainless Steel and measured 16 millimeters in length. The coating mixture contained an equal weight of polylactic acid and each of the compounds to be evaluated. The mixture components were weighed, combined in a glass vial with acetone at room temperature and then vortexed until all of the materials dissolved. Each individual stent was weighed using a Mettler model XP105 balance. […]
After visual inspection the stents were mounted onto 3.0 mm×16 mm angioplasty balloons using a hand crimper. […] The appropriate pressure for inflation was determined using the inflation table applicable to the angioplasty catheter. […]
For elution comparison each stent was transferred into its respective 7-mL borosilicate vial and 4.0 mL 25% ethanol in water (w/w) elution medium was added. […] The amount of drug eluted during each time interval was determined by HPLC. After a cumulative incubation of 168 hours, the remaining drug in each stent was determined by exhaustive extraction by adding 4.0 mL acetonitrile to each stent for 20 minutes at ambient temperature followed by vortexing for 10 seconds. […]

[3] = test system: vascular restenosis, porcine coronary arteries; test: Trial B: coated magnesium stents implanted in porcine coronary arteries, 28 days; conditions: Group 1 (n = 5 stents), 223 μg drug in polylactic acid on parylene C coated magnesium stent; 28 days post-implant
Description: Coronary artery measurements were made from angiographic images before stent deployment, immediately after deployment, and twenty-eight days after deployment to determine the effectiveness of the coated stent in reducing restenosis. Determination of angiographic late loss was made by subtraction of the minimum vessel lumen diameter of the stented vessel at 28 days post-implant from the minimal vessel lumen diameter at the time of implant. Determination of percent diameter stenosis was made at 28 days post-implant by the calculation of 100(1-MLD/refdia.) where MLD represents the minimum vessel lumen diameter at 28 days post-implant and refdia. is the average diameter of the vessel sections adjacent to the stented vessel.

[4] = Drug stability in rabbit vitreous humour at 37° C.; type: in vitro ADME, New Zealand White rabbit
Description: (§1) The assay comparison between sirolimus and the compounds of the present invention (denoted as CRC) is further described at Table XI.

[5] = Drug stability in rabbit aqueous humour at 37° C.; type: in vitro ADME
Description: as §1

[6] = 72 hours, drug dose 48.4 μg (SIR 1), 52.2 μg (CRC 1)
[7] = […], drug dose 47.8 μg (SIR 2), 54.0 μg (CRC 2)
[8] = 72 hours, drug dose 45.2 μg (SIR 1), 51.4 μg (CRC 1)

## COC1CC2CCC(C)C(O)(O2)C(=O)C(=O)N2CCCCC2C(=O)OC(C(C)CC2CCC(OC(=O)C3CC3)C(OC)C2)CC(=O)C(C)C=C(C)C(O)C(OC)C(=O)C(C)CC(C)C=CC=CC=C1C (stereo not shown) [Compound 1, Rapamycin 40-O-Cyclic Hydrocarbon Ester with Cyclopropanecarbonyl Chloride]
[1]
  condition of stent coating after stent expansion (ductility): more ductile

## CO[C@H]1C[C@@H]2CC[C@@H](C)[C@@](O)(O2)C(=O)C(=O)N2CCCC[C@H]2C(=O)O[C@H]([C@H](C)C[C@@H]2CC[C@@H](O)[C@H](OC)C2)CC(=O)[C@H](C)/C=C(\C)[C@@H](O)[C@@H](OC)C(=O)[C@H](C)C[C@H](C)/C=C/C=C/C=C/1C [Rapamycin]
[2]
  Total Drug (μg) Recovered: 109.1 µg and 84.6 µg and 103.4 µg and 125.2 µg and 71.6 µg
[3]
  Angiographic Late Loss: 0.42 mm
  Diameter Stenosis: 13.1%
[4]; 0 hrs
  Degradants (HPLC UV Area Percent): 3%
  Intact drug (HPLC UV Area Percent): 97%
[4]; 1 hrs
  Degradants (HPLC UV Area Percent): 3%
  Intact drug (HPLC UV Area Percent): 97%
[4]; 4 hrs
  Degradants (HPLC UV Area Percent): 7%
  Intact drug (HPLC UV Area Percent): 93%
[4]; 24 hrs
  Degradants (HPLC UV Area Percent): 43%
  Intact drug (HPLC UV Area Percent): 57%
[4]; 48 hrs
  Degradants (HPLC UV Area Percent): 71%
  Intact drug (HPLC UV Area Percent): 29%
[4]; [6]
  % Remaining (72 Hours): 8%
  Drug Remaining 72 Hours: 4.0 µg
[4]; 72 hrs
  Degradants (HPLC UV Area Percent): 84%
  Intact drug (HPLC UV Area Percent): 16%
[4]; [7]
  % Remaining (192 Hours): 1%
  Drug Remaining 192 Hours: 0.6 µg
[5]; 0 hrs
  Degradants (HPLC UV Area Percent): 2%
  Intact drug (HPLC UV Area Percent): 98%
[5]; 1 hrs
  Degradants (HPLC UV Area Percent): 4%
  Intact drug (HPLC UV Area Percent): 96%
[5]; 4 hrs
  Degradants (HPLC UV Area Percent): 18%
  Intact drug (HPLC UV Area Percent): 82%
[5]; 24 hrs
  Degradants (HPLC UV Area Percent): 86%
  Intact drug (HPLC UV Area Percent): 14%
[5]; 48 hrs
  Degradants (HPLC UV Area Percent): 96%
  Intact drug (HPLC UV Area Percent): 4%
[5]; [8]
  % Remaining (72 Hours): 0%
  Drug Remaining 72 Hours: 0.0 µg
[5]; 72 hrs
  Degradants (HPLC UV Area Percent): 100%
  Intact drug (HPLC UV Area Percent): 0%
